From patent publication US6579898B2, “Compositions having improved bioavailability” (Pfizer Inc., priority 2001, dated 2003)

Experiments:
[1] = in vivo
p-gp = p-gp (Homo sapiens, UniProt P08183); assay: in vitro; details: Caco-2
[2] = Effect of Vitamin E-TPGS on the pharmacokinetics of eletriptan in beagle dogs; format: in vivo; details: male, dog, plasma, oral, fasted, 0.2 or 1.0 mg/kg eletriptan with or without 6.67 mg/kg Vitamin E-TGPS
Description: This was a crossover study to assess the effects of Vitamin E-TGPS on the rate of absorption of eletriptan. Four male beagle dogs were orally dosed in the fasted state with a 20 ml aqueous formulation comprising
(a) 0.2 mg/kg eletriptan;
(b) 0.2 mg/kg eletriptan coformulated with 6.67 mg/kg of Vitamin E-TGPS;
(c) 1.0 mg/kg eletriptan; and
(d) 1.0 mg/kg eletriptan coformulated with 6.67 mg/kg of Vitamin E-TGPS.
Blood samples (2.5 ml) were collected at 0, 0.17, 0.33, 0.5, 1, 2, 4, 6, 8, 12 and 24 hours after dosing and centrifuged. The resulting plasma samples were deep frozen until analysed for eletriptan by hplc with electrochemical detection.

[3] = tested on: Human Intestinal (Caco-2) Cell Monolayers; assay: Eletriptan transport across Caco-2 cell monolayers, effect of concentration; format: in vitro ADME; details: Caco-2, higher secretory than absorptive flux at low concentrations
Description: (§1) Caco-2 cell monolayers were grown on permeable 24 well filter supports (1 μm poresize) and used at Day 15-28.
(§2) In studies examining the effect of concentration, 1, 10, 25 and 100 μM solutions of eletriptan in HBSS were added to the donor chamber and Hank's balanced salt solution (HBSS) was added to the acceptor chamber. The volume of the apical and basolateral chambers were 0.25 ml and 1 ml respectively.

[4] = as above; format: in vitro ADME, human; details: human, 2 hours, 37° C.
Description: as §1, §2

Chain of p-gp (P08183 whole entry): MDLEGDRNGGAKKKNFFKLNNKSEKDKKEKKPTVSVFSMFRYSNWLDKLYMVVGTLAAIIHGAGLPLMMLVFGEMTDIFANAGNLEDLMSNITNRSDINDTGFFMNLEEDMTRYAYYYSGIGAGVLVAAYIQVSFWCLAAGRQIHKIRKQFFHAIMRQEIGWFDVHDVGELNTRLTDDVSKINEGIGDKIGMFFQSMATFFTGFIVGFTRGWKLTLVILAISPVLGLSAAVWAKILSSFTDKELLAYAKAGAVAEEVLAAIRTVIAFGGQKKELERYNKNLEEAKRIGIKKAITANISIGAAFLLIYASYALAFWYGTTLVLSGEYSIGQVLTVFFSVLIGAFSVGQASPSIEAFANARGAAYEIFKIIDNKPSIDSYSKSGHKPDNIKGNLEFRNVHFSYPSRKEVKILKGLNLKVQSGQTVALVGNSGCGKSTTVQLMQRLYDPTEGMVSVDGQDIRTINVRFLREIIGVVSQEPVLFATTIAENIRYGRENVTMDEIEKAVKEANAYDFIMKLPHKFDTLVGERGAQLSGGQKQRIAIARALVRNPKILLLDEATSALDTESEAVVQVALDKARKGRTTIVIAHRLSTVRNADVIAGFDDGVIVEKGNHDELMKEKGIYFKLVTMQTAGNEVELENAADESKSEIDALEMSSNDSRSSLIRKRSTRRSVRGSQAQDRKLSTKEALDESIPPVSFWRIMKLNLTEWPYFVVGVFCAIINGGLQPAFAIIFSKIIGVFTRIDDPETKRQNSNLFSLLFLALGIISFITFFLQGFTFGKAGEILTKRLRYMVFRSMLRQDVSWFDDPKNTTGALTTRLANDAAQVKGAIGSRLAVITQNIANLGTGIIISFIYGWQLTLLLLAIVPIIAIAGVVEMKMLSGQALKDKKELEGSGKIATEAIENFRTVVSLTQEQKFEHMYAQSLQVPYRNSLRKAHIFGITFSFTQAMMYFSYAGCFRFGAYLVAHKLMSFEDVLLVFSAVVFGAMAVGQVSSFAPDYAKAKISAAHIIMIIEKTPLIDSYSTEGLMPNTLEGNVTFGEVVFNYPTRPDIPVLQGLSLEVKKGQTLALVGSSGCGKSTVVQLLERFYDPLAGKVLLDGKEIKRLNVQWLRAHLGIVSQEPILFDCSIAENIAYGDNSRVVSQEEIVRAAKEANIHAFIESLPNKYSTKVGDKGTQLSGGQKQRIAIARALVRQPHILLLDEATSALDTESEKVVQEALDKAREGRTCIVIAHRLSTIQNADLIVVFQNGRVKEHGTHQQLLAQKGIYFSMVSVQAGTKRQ

eletriptan kel with the inhibitor [1]	Papp A→B at 2 h, 10 μM (p-gp)	Papp B→A at 2 h, 10 μM (p-gp)	Cmax [2]	Tmax [2]	substrate for the p-gp efflux transporter [3]	Papp A→B at 2 h, 1 μM ([4]; Caco-2, 1 μM eletriptan, read-out: Absorptive A -> B Papp)	Papp B→A at 2 h, 1 μM ([4]; Caco-2, 1 μM eletriptan, read-out: Secretory B -> A Papp)	Papp A→B at 2 h, 10 μM ([4]; Caco-2, 10 μM eletriptan, read-out: Absorptive A -> B Papp)	Papp B→A at 2 h, 10 μM ([4]; Caco-2, 10 μM eletriptan, read-out: Secretory B -> A Papp)	Papp A→B at 2 h, 25 μM ([4]; Caco-2, 25 μM eletriptan, read-out: Absorptive A -> B Papp)	Papp B→A at 2 h, 25 μM ([4]; Caco-2, 25 μM eletriptan, read-out: Secretory B -> A Papp)	Papp A→B at 2 h, 100 μM ([4]; Caco-2, 100 μM eletriptan, read-out: Absorptive A -> B Papp)	Papp B→A at 2 h, 100 μM ([4]; Caco-2, 100 μM eletriptan, read-out: Secretory B -> A Papp)	Structure (SMILES)
significantly reduced	–	–	–	–	–	–	–	–	–	–	–	–	–	CC[C@H]1OC(=O)[C@H](C)[C@@H](O[C@H]2C[C@@](C)(OC)[C@@H](O)[C@H](C)O2)[C@H](C)[C@@H](O[C@@H]2O[C@H](C)C[C@H](N(C)C)[C@H]2O)[C@](C)(O)C[C@@H](C)C(=O)[C@H](C)[C@@H](O)[C@]1(C)O [erythromycin]
–	16 ×10⁻⁶ cm/s	32.6 ×10⁻⁶ cm/s	7 to 15 ng/mL	1 to 1.7 h	substrate	17 ×10⁻⁶ cm/s	41.8 ×10⁻⁶ cm/s	20.2 ×10⁻⁶ cm/s	36.1 ×10⁻⁶ cm/s	21.1 ×10⁻⁶ cm/s	34.1 ×10⁻⁶ cm/s	29.9 ×10⁻⁶ cm/s	32.8 ×10⁻⁶ cm/s	CN1CCC[C@@H]1Cc1c[nH]c2ccc(CCS(=O)(=O)c3ccccc3)cc12 [eletriptan]
significantly reduced	–	–	–	–	–	–	–	–	–	–	–	–	–	CC(=O)N1CCN(c2ccc(OCC3COC(Cn4ccnc4)(c4ccc(Cl)cc4Cl)O3)cc2)CC1 (stereo not drawn) [ketoconazole]
